# Measured values taken from patent US20230302131A1, “MPC INHIBITION FOR PRODUCING T-CELLS WITH A MEMORY PHENOTYPE” (UNIVERSITÉ DE LAUSANNE, priority 2020, published 2023).
# Tests used:
# [1] = test system: histone 3 (H3K4-3Me, H3K27-Ac) in CD8 T cells; assay: Western blot of histone 3 modifications; format: cell-based, mouse
# Source text: Mechanistically, it was hypothesized by the inventors that epigenetic processes might underlie the observed long-term memory phenotype and anti-tumor activity upon metabolic intervention with MPCi. […] Since acetyl-CoA is the acetyl donor for the acetylation of proteins, amongst which also histones, histone post-translational modifications were examined that are known to make chromatin accessible to transcription factors, a characteristic of memory T cells. […] These are marks known to open chromatin and make it accessible for transcription factor docking. […] Amongst those were Sell, Tcf7 and Ccr7, thereby correlating accessible chromatin with increased mRNA copies (FIG. 3E and see above).
# Cells were lysed in RIPA lysis buffer (50 mM TrisHCl pH8, 150 mM NaCl, 1% Triton X 100, 0.5% Sodium deoxycholate, 0.1% SDS) and Halt protease/phosphatase cocktail inhibitors (Roche) and denatured by heat. Proteins were quantified by BCA protein assay kit (Thermo Scientific). Proteins were separated on 12.5% polyacrylamide gradient gels and transferred onto nitrocellulose membranes 0.2 μm (Biorad). Non-specific binding sites were blocked in milk 5% and membranes were incubated with primary antibodies (Cell Signaling). […]
# OT1 T cells = assay: RNA sequencing of OT1 T cells; format: cell-based, mouse; settings: day 7; compared to DMSO
# Protocol: To evaluate the effects of MPC inhibition on T cell differentiation, OT1 splenocytes were cultured in the presence of 1 μg/ml ovalbumin-derived N4 (SIINFEKL) peptide, 100 IU/ml recombinant human IL-2 (rhIL-2) and the MPC inhibitor (MPCi) UK5099 at 75 μM or control DMSO for 3 days. The inhibitor or DMSO was then washed away and the cells were cultured for 4 more days in the presence of 100 IU/ml IL-2 and 10 ng/ml rhIL-7 (FIG. 1A). […] Thus, the increase in the memory markers upon MPCi in vitro treatment occurs at the transcriptional level.
# […] Purity-filtered reads were adapters and quality trimmed with Cutadapt (v. 1.8, Martin 2011). Reads matching to ribosomal RNA sequences were removed with fastq_screen (v. 0.9.3). Remaining reads were further filtered for low complexity with reaper (v. 15-065, Davis et al. 2013). Reads were aligned against Mus musculus.GRCm38.86 genome using STAR (v. 2.5.2b, Dobin et al. 2013). The number of read counts per gene locus was summarized with htseq-count (v. 0.6.1, Anders et al. 2014) using Mus musculus.GRCm38.86gene annotation. Quality of the RNA-seq data alignment was assessed using RSeQC (v. 2.3.7, Wang et al. 2012). Reads were also aligned to the Mus musculus.GRCm38.86 transcriptome using STAR (v. 2.5.2b, Dobin et al. 2013) and the estimation of the isoforms abundance was computed using RSEM (v. 1.2.31, Li and Dewey 2011). Statistical analysis was performed for genes in R (R version 3.4.0). An analysis with all genes, including mitochondria, was done. Genes with less than one count per million in all samples were filtered out. Library sizes were scaled using TMM normalization (EdgeR package version 3.14.0; Robinson et al. 2010) and log-transformed with EdgeR cpm function.
# Differential expression was computed with limma (Ritchie et al. 2015) by fitting the samples into a linear model using all conditions as factors and correcting for batch effect by introducing factors for the replicates (=paired analysis).
# adult human T cells = assay: Mitochondrial staining (MitoGreen, TMRM) of adult human T cells; format: cell-based; settings: day 9; 25 μM; fold change compared to DMSO
# Protocol: FIG. 7: MPC inhibition during the activation and culture of adult human T cells induces a memory phenotype. (A) Experimental design. PBMCs were isolated from adult healthy volunteers and activated with anti-CD3/CD28 beads in the presence of DMSO or UK5099 (25 μM). Beads were removed at day 5 and T cell phenotype was analysed at day 9. (B) Percentage of CD8 T cells expressing the memory marker CD62L. (C) The mean fluorescent intensity of CD62L in the respective positive population. (D) Percentage of CD8 T cells expressing markers that allows their identification as stem cell memory T cells (TSCM). (E-F) Mitochonrial mass (identified by MitoGreen staining, E) and mitochondrial membrane potential (TMRM, F), measured by flow cytometry and expressed as fold change as compared to DMSO. (G) Mitochondrial membrane potential normalized for the mitochondrial mass, expressed as the ratio of […], fold change as compared to DMSO. Pooled data from 2 independant experiments. ns: non-significant, *p<0.05, **[…], ***p<0.001. Data represents mean±s.e.m.
# Heparinised blood was diluted with PBS and pipetted on top of Ficoll-paque (LymphoPrep). After centrifugation at 1800 rpm for 20 minutes at room temperature, the layer of cells at the intersection, containing the PBMCs was removed, washed and resuspended at 5×10^5 cells/ml of RPMI medium containing 8% human serum (AB serum), antibiotics, 2 mM L-Glutamine, 1% non-essential amino acids, 1 mM sodium pyruvate and 50 μM β-mercaptoethanol (all Gibco). Cells were activated with Human T-activator CD3/CD28 Dynabeads at a 1 bead/cell ratio with 150 IU/ml human recombinant IL2 and DMSO or 25 μM UK5099. Throughout the culture, cells were regularly split when necessary and beads were removed at day 5. At day 9, a fraction of the cells was stained with antibodies for flow cytometry analysis or for mitochondrial analysis.
# 2×10^5 cells were stained with 25 nM TMRM and 50 nM MitoGreen (Molecular Probes, Invitrogen) for 30 minutes in RPMI with 5% FCS at 37° C. […]
smiles,measurement,setting,value
"N#CC(=Cc1cn(-c2ccccc2)c2ccccc12)C(=O)O [UK5099, 2-cyano-3-(1-phenyl-1H-indol-3-yl)-2-propenoic acid]",acetylation of lysine 27 on histone 3 (H3K27-Ac),[1],increase
same,trimethylation of lysine 4 on histone 3 (H3K4-3Me),[1],increase
same,"Ccr7 expression, RNA sequencing",OT1 T cells,increased
same,"Sell (CD62L) expression, RNA sequencing",OT1 T cells,at least 1.5 fold
same,"Tcf7 expression, RNA sequencing",OT1 T cells,increased
same,mitochondrial membrane potential (TMRM),adult human T cells,significantly increased
same,mitochondrial membrane potential normalized for the mitochondrial mass,adult human T cells,more polarised mitochondria
same,total mitochondrial mass (MitoGreen),adult human T cells,did not impact
